Results from US20140162290A1, “PROBE FOR DETECTING DEAD CELL” (RIKEN, priority 2012, published 2014).

How the values were obtained:
[1] = molecular target: T1, human Tim4 wild-type IgG Fc fusion protein hTim4-Fc (181 mucin domain residues), SEQ ID NO: 49 (Homo sapiens, UniProt Q96H15, D300G/G301W/M299D/Q298T/V240A); experiment: ELISA, binding capacity of hTim4-Fc to PS; settings: n = 2
T1 construct: made in house; host or cells: Freestyle 293F cells
Protocol: Using a vector encoding the hTim4 sequence (pCMV6-XL5 Homo sapiens T-cell immunoglobulin and mucin domain containing 4, transcript variant 1 as transfection-ready DNA, OriGene Technologies) as a template, and a primer containing an EcoRV restriction site at 5′-end (SEQ ID NO:22) and a primer containing a BglII restriction site at 3′-end (SEQ ID NO:23), PCR was performed. The obtained PCR product and pFUSE-hIgG1e3-Fc2 (InvivoGen) encoding the human IgG-Fc region were each digested with EcoRV and BglII, and the resulting digestion products were ligated to each other. E. coli (JM109, Takara Bio Inc.) was transformed with the resulting ligation product, and colonies were obtained. From the obtained colonies, plasmids were extracted, and the DNA sequences of the plasmids were analyzed. A colony having the hTim4 sequence inserted therein was subjected to large-scale culture, to obtain a vector. […]
(§1) The obtained vector of 37.5 μg was transfected into 30 mL of 1×10^6 cells/mL Freestyle 293F cells (Life technologies) using Freestyle MAX Reagent (Life technologies), and the cells were cultured with shaking at 37° C. under 8% CO2 for 4 days. […] The purified protein was subjected to SDS-PAGE, and the molecular weight under non-reducing conditions was calculated (Table 6). […]

[2] = molecular target: T2, human Tim4 IgG Fc fusion protein, modified type hTim4-240-Fc (111 mucin domain residues), SEQ ID NO: 51 (Homo sapiens, UniProt Q96H15, V240A); experiment: ELISA, binding capacity of hTim4-240-Fc to PS; settings: n = 2
T2 construct: made in house; host or cells: Freestyle 293F cells
T2 sequence (Q96H15 with tags, fused parts or gaps V240A): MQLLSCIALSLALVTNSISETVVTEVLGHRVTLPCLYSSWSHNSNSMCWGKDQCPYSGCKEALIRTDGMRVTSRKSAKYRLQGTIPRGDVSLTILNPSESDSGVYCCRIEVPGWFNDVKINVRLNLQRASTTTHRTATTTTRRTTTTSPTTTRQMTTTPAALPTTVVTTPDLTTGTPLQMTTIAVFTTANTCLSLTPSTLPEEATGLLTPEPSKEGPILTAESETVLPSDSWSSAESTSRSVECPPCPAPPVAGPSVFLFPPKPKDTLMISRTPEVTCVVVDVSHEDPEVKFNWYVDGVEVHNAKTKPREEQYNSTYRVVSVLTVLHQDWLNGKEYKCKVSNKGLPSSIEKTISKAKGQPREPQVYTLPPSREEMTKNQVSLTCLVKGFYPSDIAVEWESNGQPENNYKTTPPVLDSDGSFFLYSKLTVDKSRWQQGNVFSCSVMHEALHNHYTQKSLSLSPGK
Description: (§2) Using the primers shown in Table 4 and PrimeSTAR Mutagenesis Basal Kit (Takara Bio Inc.), vectors encoding fusion proteins having mucin domains with various lengths, in which the C-terminus and/or the N-terminus of the wild-type mucin domain was/were deleted. More specifically, phTim4-Fc was used as a template to prepare phTim4-240-Fc and phTim4-187-Fc; the obtained phTim4-187-Fc was used as a template to prepare phTim4-184-Fc, phTim4-181-Fc, phTim4-178-Fc, phTim4-175-Fc, phTim4-162-Fc, phTim4-149-Fc, phTim4-135-Fc, phTim4-130-Fc and phTim4-Δ131-187-Fc; the obtained phTim4-240-Fc was used as a template to prepare phTim4-Δ131-240-Fc; and the obtained phTim4-Δ131-187-Fc was used as a template to prepare phTim4-Δ131-187Δ241-310-Fc. […]
as §1
(§3) Into a 96-well plate, 100 μL of PS (0.5 mg/mL) or a solvent (methanol) was placed, and dried. […] An HRP-conjugated anti-human IgG-Fc antibody was used as a secondary antibody, and the absorbance due to coloring with TMB was measured using a microplate reader. […]

[3] = molecular target: T3, human Tim4 IgG Fc fusion protein, modified type hTim4-Δ131-240-Fc (55 mucin domain residues), SEQ ID NO: 55 (Homo sapiens, UniProt Q96H15, DEL135-260); experiment: ELISA, binding capacity of hTim4-Δ131-240-Fc to PS; settings: n = 2
T3 construct: made in house; host or cells: Freestyle 293F cells
T3 sequence (Q96H15 with tags, fused parts or gaps DEL135-260 limits assumed): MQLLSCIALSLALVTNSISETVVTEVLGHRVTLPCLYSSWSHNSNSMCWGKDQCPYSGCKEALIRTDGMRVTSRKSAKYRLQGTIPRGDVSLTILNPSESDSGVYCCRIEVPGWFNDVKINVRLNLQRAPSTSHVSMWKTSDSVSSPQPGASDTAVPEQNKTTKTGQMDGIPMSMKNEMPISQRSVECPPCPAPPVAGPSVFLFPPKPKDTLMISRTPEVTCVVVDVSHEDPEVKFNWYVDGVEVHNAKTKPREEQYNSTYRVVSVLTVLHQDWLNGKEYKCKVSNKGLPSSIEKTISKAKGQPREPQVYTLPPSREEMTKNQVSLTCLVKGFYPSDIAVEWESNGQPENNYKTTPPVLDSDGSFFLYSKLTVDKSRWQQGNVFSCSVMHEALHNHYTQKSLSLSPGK
Description: as §2, §1, §3

[4] = molecular target: T4, human Tim4 IgG Fc fusion protein, modified type hTim4-Δ131-187Δ241-310-Fc (58 mucin domain residues), SEQ ID NO: 57 (Homo sapiens, UniProt Q96H15, DEL135-187/V240A); experiment: ELISA, binding capacity of hTim4-Δ131-187Δ241-310-Fc to PS; settings: n = 2
T4 construct: made in house; host or cells: Freestyle 293F cells
T4 sequence (Q96H15 with tags, fused parts or gaps DEL135-187/V240A limits assumed): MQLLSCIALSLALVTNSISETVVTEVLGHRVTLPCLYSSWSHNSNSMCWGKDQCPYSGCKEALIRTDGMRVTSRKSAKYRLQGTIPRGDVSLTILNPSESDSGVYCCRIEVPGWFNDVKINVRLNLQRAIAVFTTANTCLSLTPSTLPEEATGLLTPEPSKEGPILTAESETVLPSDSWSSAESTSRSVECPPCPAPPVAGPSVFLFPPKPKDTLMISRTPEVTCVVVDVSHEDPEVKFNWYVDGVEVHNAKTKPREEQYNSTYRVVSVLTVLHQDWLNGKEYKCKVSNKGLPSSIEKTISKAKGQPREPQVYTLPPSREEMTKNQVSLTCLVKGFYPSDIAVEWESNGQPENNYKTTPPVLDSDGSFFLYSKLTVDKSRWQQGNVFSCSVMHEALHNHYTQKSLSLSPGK
Description: as §2, §1, §3

[5] = molecular target: T5, human Tim4 IgG Fc fusion protein, modified type hTim4-187-Fc (58 mucin domain residues), SEQ ID NO: 59 (Homo sapiens, UniProt Q96H15); experiment: ELISA, binding capacity of hTim4-187-Fc to PS; settings: n = 2
T5 construct: made in house; host or cells: Freestyle 293F cells
T5 sequence (Q96H15 with tags, fused parts or gaps): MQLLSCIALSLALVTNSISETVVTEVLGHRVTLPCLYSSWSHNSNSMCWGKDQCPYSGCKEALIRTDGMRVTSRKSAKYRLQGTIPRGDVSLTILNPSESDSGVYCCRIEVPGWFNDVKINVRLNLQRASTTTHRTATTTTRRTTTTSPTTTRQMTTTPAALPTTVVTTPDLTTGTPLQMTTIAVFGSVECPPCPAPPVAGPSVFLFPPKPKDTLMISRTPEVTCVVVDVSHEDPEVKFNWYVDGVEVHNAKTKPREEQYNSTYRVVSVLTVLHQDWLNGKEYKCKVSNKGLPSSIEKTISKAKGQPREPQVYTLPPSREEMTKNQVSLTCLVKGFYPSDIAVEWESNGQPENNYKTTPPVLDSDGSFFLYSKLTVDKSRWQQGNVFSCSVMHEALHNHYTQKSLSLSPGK
Description: as §2, §1, §3

[6] = molecular target: T6, human Tim4 IgG Fc fusion protein, modified type hTim4-184-Fc (55 mucin domain residues), SEQ ID NO: 61 (Homo sapiens, UniProt Q96H15); experiment: ELISA, binding capacity of hTim4-184-Fc to PS; settings: n = 2
T6 construct: made in house; host or cells: Freestyle 293F cells
T6 sequence (Q96H15 with tags, fused parts or gaps): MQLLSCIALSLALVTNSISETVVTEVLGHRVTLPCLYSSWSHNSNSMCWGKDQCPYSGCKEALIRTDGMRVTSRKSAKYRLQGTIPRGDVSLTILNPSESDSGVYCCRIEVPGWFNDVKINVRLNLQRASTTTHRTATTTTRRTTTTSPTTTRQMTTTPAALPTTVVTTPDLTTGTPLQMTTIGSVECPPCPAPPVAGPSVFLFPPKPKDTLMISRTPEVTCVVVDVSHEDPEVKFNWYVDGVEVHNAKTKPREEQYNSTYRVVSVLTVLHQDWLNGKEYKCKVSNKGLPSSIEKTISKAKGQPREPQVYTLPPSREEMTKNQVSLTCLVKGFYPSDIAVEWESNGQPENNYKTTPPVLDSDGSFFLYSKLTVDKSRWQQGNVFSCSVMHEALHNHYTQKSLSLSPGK
Description: as §2, §1, §3

[7] = molecular target: T7, human Tim4 IgG Fc fusion protein, modified type hTim4-181-Fc (52 mucin domain residues), SEQ ID NO: 63 (Homo sapiens, UniProt Q96H15); experiment: ELISA, binding capacity of hTim4-181-Fc to PS; settings: n = 2
T7 construct: made in house; host or cells: Freestyle 293F cells
T7 sequence (Q96H15 with tags, fused parts or gaps): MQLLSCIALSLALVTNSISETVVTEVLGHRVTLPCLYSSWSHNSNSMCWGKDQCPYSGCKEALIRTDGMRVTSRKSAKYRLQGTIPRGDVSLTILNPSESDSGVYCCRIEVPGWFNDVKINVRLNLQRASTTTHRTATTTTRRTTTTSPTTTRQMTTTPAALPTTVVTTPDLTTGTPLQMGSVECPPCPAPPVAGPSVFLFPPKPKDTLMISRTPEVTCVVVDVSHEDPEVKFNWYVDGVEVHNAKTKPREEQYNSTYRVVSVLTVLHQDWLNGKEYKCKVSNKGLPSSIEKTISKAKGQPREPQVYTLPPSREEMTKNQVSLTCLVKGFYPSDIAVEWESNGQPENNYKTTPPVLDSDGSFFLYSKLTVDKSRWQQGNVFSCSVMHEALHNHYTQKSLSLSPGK
Description: as §2, §1, §3

[8] = molecular target: T8, human Tim4 IgG Fc fusion protein, modified type hTim4-178-Fc (49 mucin domain residues), SEQ ID NO: 65 (Homo sapiens, UniProt Q96H15); experiment: ELISA, binding capacity of hTim4-178-Fc to PS; settings: n = 2
T8 construct: made in house; host or cells: Freestyle 293F cells
T8 sequence (Q96H15 with tags, fused parts or gaps): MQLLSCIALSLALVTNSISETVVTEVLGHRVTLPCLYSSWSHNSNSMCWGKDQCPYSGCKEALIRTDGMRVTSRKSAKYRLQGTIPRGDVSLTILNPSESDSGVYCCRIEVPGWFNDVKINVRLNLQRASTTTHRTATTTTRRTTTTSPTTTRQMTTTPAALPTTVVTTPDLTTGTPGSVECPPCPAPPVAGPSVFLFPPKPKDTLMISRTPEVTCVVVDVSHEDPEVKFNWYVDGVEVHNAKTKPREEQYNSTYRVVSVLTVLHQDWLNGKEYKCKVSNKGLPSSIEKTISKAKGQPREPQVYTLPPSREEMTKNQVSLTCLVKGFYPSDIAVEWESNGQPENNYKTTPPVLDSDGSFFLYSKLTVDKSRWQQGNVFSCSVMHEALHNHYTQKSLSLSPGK
Description: as §2, §1, §3

[9] = molecular target: T9, human Tim4 IgG Fc fusion protein, modified type hTim4-175-Fc (46 mucin domain residues), SEQ ID NO: 67 (Homo sapiens, UniProt Q96H15); experiment: ELISA, binding capacity of hTim4-175-Fc to PS; settings: n = 2
T9 construct: made in house; host or cells: Freestyle 293F cells
T9 sequence (Q96H15 with tags, fused parts or gaps): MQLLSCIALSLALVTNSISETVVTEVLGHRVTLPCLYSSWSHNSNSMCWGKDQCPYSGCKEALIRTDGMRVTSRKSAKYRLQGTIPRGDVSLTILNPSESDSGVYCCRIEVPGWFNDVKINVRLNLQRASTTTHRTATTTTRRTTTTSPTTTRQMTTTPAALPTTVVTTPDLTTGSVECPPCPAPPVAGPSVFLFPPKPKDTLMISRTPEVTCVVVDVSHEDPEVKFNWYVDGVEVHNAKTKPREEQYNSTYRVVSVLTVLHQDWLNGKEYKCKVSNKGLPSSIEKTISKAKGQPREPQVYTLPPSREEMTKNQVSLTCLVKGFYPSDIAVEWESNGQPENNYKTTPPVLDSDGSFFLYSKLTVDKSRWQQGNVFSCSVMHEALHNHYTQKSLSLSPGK
Description: as §2, §1, §3

[10] = molecular target: T10, human Tim4 IgG Fc fusion protein, modified type hTim4-240-Fc, SEQ ID NO: 51 (Homo sapiens, UniProt Q96H15, V240A); experiment: Dot blotting, binding of hTim4-240-Fc to PS; settings: 0.15 μg of PS spotted; fusion protein 0.5 μg/mL, 4° C. overnight
T10 construct: replaced N-terminal leader; Freestyle 293F, purified
T10 sequence (Q96H15 with tags, fused parts or gaps V240A): as the sequence (Q96H15 with tags, fused parts or gaps V240A) above
Protocol: (§4) Dot blotting was carried out by the following procedure to evaluate the binding capacity of each fusion protein (hTim4-Fc) prepared as described above to PS. On a PVDF membrane (GE Healthcare) with a size of 10 mm×10 mm, 0.15 μg of PS was spotted, and the resulting membrane was incubated in 500 μL of a blocking buffer (5% skim milk—PBS-T) in a 24-well plate at room temperature for 1 hour, to perform blocking. To the blocking buffer in the well, each fusion protein was added at a final concentration of 0.5 μg/mL, and incubation was carried out at 4° C. overnight. A control was provided by use of only the blocking buffer. Thereafter, the PVDF membrane was washed 5 times with 2 mL of PBS-T, and incubated at room temperature for 2 hours in an HRP-conjugated anti-human IgG-Fc antibody (Bethyl) solution which was 10000-fold diluted with 500 μL of the blocking buffer. Subsequently, the membrane was washed 5 times with 2 mL of PBS-T, followed by chemiluminescence using ECL prime (GE healthcare) and detection using LAS 3000 (Fujifilm).

[11] = molecular target: T11, human Tim4 IgG Fc fusion protein, modified type hTim4-187-Fc, SEQ ID NO: 59 (Homo sapiens, UniProt Q96H15); experiment: Dot blotting, binding of hTim4-187-Fc to PS; settings: 0.15 μg of PS spotted; fusion protein 0.5 μg/mL, 4° C. overnight
T11 construct: replaced N-terminal leader; Freestyle 293F, purified
Protocol: as §4

[12] = molecular target: T12, human Tim4 IgG Fc fusion protein, modified type hTim4-184-Fc, SEQ ID NO: 61 (Homo sapiens, UniProt Q96H15); experiment: Dot blotting, binding of hTim4-184-Fc to PS; settings: 0.15 μg of PS spotted; fusion protein 0.5 μg/mL, 4° C. overnight
T12 construct: replaced N-terminal leader; Freestyle 293F, purified
Protocol: as §4

[13] = molecular target: T13, human Tim4 IgG Fc fusion protein, modified type hTim4-181-Fc, SEQ ID NO: 63 (Homo sapiens, UniProt Q96H15); experiment: Dot blotting, binding of hTim4-181-Fc to PS; settings: 0.15 μg of PS spotted; fusion protein 0.5 μg/mL, 4° C. overnight
T13 construct: replaced N-terminal leader; Freestyle 293F, purified
Protocol: as §4

[14] = molecular target: T14, human Tim4 IgG Fc fusion protein, modified type hTim4-178-Fc, SEQ ID NO: 65 (Homo sapiens, UniProt Q96H15); experiment: Dot blotting, binding of hTim4-178-Fc to PS; settings: 0.15 μg of PS spotted; fusion protein 0.5 μg/mL, 4° C. overnight
T14 construct: replaced N-terminal leader; Freestyle 293F, purified
Protocol: as §4

[15] = molecular target: T15, human Tim4 IgG Fc fusion protein, modified type hTim4-175-Fc, SEQ ID NO: 67 (Homo sapiens, UniProt Q96H15); experiment: Dot blotting, binding of hTim4-175-Fc to PS; settings: 0.15 μg of PS spotted; fusion protein 0.5 μg/mL, 4° C. overnight
T15 construct: replaced N-terminal leader; Freestyle 293F, purified
Protocol: as §4

[16] = molecular target: T11, human Tim4 IgG Fc fusion protein, modified type hTim4-187-Fc, SEQ ID NO: 59; experiment: Dot blotting, binding specificity of hTim4-187-Fc to various phospholipids; settings: PE, PC, PI and PS spotted, 1 μL of 100 pmol/μL each; fusion protein 0.5 μg/mL, room temperature 2 hours
Protocol: Dot blotting was carried out by the following procedure to evaluate the binding capacity of the fusion protein of the present invention to various phospholipids.
On a PVDF membrane (GE Healthcare), 1 μL each of 100 pmol/μL 3-sn-phosphatidylethanolamine (PE), L-α-phosphatidylcholine (PC), L-α-phosphatidylinositol (PI), and 3-sn-phosphatidyl-L-serine (Sigma Aldrich) were spotted, and the resulting membrane was incubated in 2 mL of a blocking buffer (5% skim milk—PBS-T) at room temperature for 1 hour, to perform blocking. To the blocking buffer in each well, hTim4-187-Fc was added at a final concentration of 0.5 μg/mL, and incubation was carried out at room temperature for 2 hours. Thereafter, the PVDF membrane was washed 5 times with 5 mL of PBS-T, and incubated at room temperature for 2 hours in an HRP-conjugated anti-human IgG-Fc antibody (Bethyl) solution which was 10000-fold diluted with 2 mL of the blocking buffer. Subsequently, the membrane was washed 5 times with 5 mL of PBS-T, followed by chemiluminescence using ECL prime (GE healthcare) and detection using LAS 3000 (Fujifilm).

A431 tumor = experiment: Diagnosis of apoptosis in target tissue (TUNEL and activated caspase 3 staining of tumor sections); format: in vivo, mouse (Balb/c-Ajcl-nu/nu); settings: MMC 5 mg/6.25 mL/kg via tail vein, one, 3 and 5 days before the RI-labeled product
Description: Male Balb/c-Ajcl-nu/nu mice of 5 to 6 weeks old (CLEA Japan, Inc.) were provided, and divided into two groups (the MMC administration group and the vehicle group; 3 individuals per group). A431 cells were inoculated into the left femoral region of each mouse, 2 to 3 weeks before the PET experiment for the MMC administration group, or 10 days to 2 weeks before the PET experiment for the vehicle group. Individuals of which the tumor size became […] on the day before the administration of the RI-labeled product were subjected to the PET experiment. One day, 3 days, and 5 days before the administration of the RI-labeled product, MMC (mitomycin C) was administered via the tail vein at an amount of 5 mg/6.25 mL/kg for the MMC administration group, and physiological saline was administered at amount of 6.25 mL/kg for the vehicle group.
After the completion of the PET experiment, the tumor was isolated from each mouse, and frozen sections were prepared. The prepared frozen sections were fixed with cold methanol, and stored at −20° C. until use. The sections were used for the experiment within 3 to 5 days after the dissection.
The frozen sections were subjected to blocking using Protein Block, Serum-Free (Dako), and then subjected to TUNEL staining using DeadEnd Fluorometric TUNEL System (Promega). […]

[17] = 10-fold dilution series of the fusion protein on PS-coated plate, read-out: EC50 ± SE (50% effective concentration)

T1 sequence (Q96H15 with tags, fused parts or gaps V240A/Q298T/M299D/D300G/G301W): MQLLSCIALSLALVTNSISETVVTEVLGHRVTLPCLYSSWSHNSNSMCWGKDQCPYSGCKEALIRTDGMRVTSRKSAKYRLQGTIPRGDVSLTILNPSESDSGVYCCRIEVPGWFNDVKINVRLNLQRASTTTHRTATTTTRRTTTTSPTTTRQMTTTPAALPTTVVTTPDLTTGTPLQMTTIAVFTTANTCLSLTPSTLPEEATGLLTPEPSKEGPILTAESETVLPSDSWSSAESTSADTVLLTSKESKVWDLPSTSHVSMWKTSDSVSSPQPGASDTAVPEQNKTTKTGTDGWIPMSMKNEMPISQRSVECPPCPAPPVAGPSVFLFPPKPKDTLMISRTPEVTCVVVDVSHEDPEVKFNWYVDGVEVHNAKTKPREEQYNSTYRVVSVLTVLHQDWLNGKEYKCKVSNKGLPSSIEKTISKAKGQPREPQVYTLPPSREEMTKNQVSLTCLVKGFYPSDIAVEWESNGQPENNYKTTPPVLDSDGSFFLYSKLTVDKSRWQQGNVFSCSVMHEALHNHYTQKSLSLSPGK

3-sn-phosphatidyl-L-serine [PS]
EC50 [1, 17]: 0.2 nM
Bmax ± SE (maximum binding amount) ([1]; PS-coated plate): 0.00 ± 0.00 Abs 450 nm
EC50 [2, 17]: 7.1 ± 14.9 nM
Bmax ± SE (maximum binding amount) ([2]; PS-coated plate): 0.01 ± 0.01 Abs 450 nm
EC50 [3, 17]: 148 ± 85.8 nM
Bmax ± SE (maximum binding amount) ([3]; PS-coated plate): 0.07 ± 0.02 Abs 450 nm
EC50 [4, 17]: 132 ± 305 nM
Bmax ± SE (maximum binding amount) ([4]; PS-coated plate): 0.02 ± 0.03 Abs 450 nm
EC50 [5, 17]: 62.8 ± 20.2 nM
Bmax ± SE (maximum binding amount) ([5]; PS-coated plate): 1.02 ± 0.14 Abs 450 nm
EC50 [6, 17]: 100 ± 45.2 nM
Bmax ± SE (maximum binding amount) ([6]; PS-coated plate): 0.84 ± 0.17 Abs 450 nm
EC50 [7, 17]: 47.5 ± 6.2 nM
Bmax ± SE (maximum binding amount) ([7]; PS-coated plate): 0.74 ± 0.04 Abs 450 nm
EC50 [8, 17]: 67 ± 54.8 nM
Bmax ± SE (maximum binding amount) ([8]; PS-coated plate): 0.63 ± 0.22 Abs 450 nm
EC50 [9, 17]: 76.2 ± 19.5 nM
Bmax ± SE (maximum binding amount) ([9]; PS-coated plate): 0.77 ± 0.08 Abs 450 nm
binding to PS [10]: binding to PS was confirmed
binding to PS [11]: binding to PS was confirmed
binding to PS [12]: binding to PS was confirmed
binding to PS [13]: binding to PS was confirmed
binding to PS [14]: binding to PS was confirmed
binding to PS [15]: binding to PS was confirmed
binding specificity to PS among phospholipids [16]: binds to only PS

CO[C@@]12[C@H](COC(N)=O)C3=C(C(=O)C(C)=C(N)C3=O)N1C[C@@H]1N[C@@H]12 [MMC, mitomycin C]
occurrence of apoptosis in the tumor (A431 tumor): occurrence of apoptosis in the tumor of the MMC-administered individuals was confirmed
